Results from BindingDB's records for doi:10.1016/0960-894X(95)00473-7 (1995).

Biological target: 5-hydroxytryptamine receptor 1D (Bos taurus)
Experiment: Ability to bind to 5-hydroxytryptamine 1D receptor of calf substantia nigra

| IC50 [nM] | Structure (SMILES) |
| --- | --- |
| 4 | c1ccc2c(c1)CCC(CNCCCNC1=NCCCC1)O2 (stereo not given) |
| 126 | c1ccc2c(c1)CC(CNCCCNC1=NCCCN1)O2 (stereo not given) |
| 10 | c1ccc2c(c1)CCC(CNCCCNc1cnccn1)O2 (stereo not given) |
| 158 | O=C1CCCN=C(NCCCNCC2CCc3ccccc3O2)N1 (stereo not given) |
| 10 | c1ccc2c(c1)CCC(CNCCCNc1ccncn1)O2 (stereo not given) |
| 7.9 | c1ccc2c(c1)CCC(CNCCCNc1nccs1)O2 (stereo not given) |
| 6.3 | c1ccc2c(c1)CCC(CNCCCNC1=NCCN1)O2 (stereo not given) |
| 10 | c1ccc2c(c1)CCC(CNCCCCCNC1=NCCCN1)O2 (stereo not given) |

The next lines start with the compound.

| Structure (SMILES) | IC50 [nM] |
| --- | --- |
| c1cnc(NCCCNCC2CCc3ccccc3O2)nc1 (stereo not given) | 1.6 |
| COc1ccc2c(c1)OC(CNCCCNC1=NCCCN1)CC2 (stereo not given) | 3.2 |
| Clc1ccc(NCCCNCC2CCc3ccccc3O2)nn1 (stereo not given) | 2 |
| c1ccc2c(c1)CCC(CNCCCNC1=NCCCN1)C2 (stereo not given) | 40 |
| Fc1ccc2c(c1)CCC(CNCCCNC1=NCCCN1)O2 (stereo not given) | 7.9 |
| CC(C)NC(=N)NNCCCNCC1CCc2ccccc2O1 (stereo not given) | 3.2 |
| COc1cccc2c1OC(CNCCCNC1=NCCCN1)CC2 (stereo not given) | 0.794 |
